Molecular target: T1, OCTN2 (hOCTN2) (Homo sapiens, UniProt O76082)
T1 construct: gene SLC22A5; human OCTN2 stably overexpressed in MDCK cells; no tag stated
T1 sequence (O76082 1-557): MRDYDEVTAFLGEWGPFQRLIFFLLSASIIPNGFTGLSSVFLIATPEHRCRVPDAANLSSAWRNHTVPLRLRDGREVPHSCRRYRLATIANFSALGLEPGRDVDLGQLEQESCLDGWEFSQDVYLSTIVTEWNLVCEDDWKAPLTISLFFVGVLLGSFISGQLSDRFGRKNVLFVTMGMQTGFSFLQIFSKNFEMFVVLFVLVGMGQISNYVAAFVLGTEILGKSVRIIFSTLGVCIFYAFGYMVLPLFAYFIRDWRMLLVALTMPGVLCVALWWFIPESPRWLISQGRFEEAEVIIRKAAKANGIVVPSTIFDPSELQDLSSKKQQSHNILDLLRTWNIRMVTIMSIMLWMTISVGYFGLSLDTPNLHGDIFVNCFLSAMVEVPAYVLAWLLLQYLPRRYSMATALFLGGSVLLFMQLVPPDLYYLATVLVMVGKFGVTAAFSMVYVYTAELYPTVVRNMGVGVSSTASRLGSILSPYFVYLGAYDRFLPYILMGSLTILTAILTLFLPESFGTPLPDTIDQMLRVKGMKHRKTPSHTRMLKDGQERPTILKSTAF
Test: d9-carnitine uptake inhibition, LC-MS/MS
Type: cell-based
Text: d9-carnitine uptake inhibition, LC-MS/MS on OCTN2 (hOCTN2) | TMAVA reduced the uptake of d9-carnitine in a concentration-dependent manner with an IC50 of […]

## C[N+](C)(C)CCCCC(=O)O [TMAVA, N,N,N-trimethyl-5-aminovaleric acid]
  IC50: 4.15 µM

Source: publication PMC8976029, “Gut microbiota production of trimethyl-5-aminovaleric acid reduces fatty acid oxidation and accelerates cardiac hypertrophy” (Nature Communications, 2022)
